The values that follow come from USRE39485E1 (Aesgen, Inc., priority 1993, dated 2007).

Where “and” joins values, the source holds several entries; their conditions need not be identical. Identical values can stand only once.

Data set [1] has as its system adults undergoing allogeneic bone marrow transplantation for hematologic malignancies. The note with it: cited from earlier work.
The conditions of data set [2]: 0.57 g/kg/day in parenteral nutrition solutions for 5 days; cited from earlier work.
The conditions of data set [3]: oral dose of 0.3 g/kg; cited from earlier work.
Data set [4] relates to patients experiencing mucositis of the oropharynx following a course of chemotherapy. As to the kind of experiment: Oral glutamine swish and swallow trial in patients with chemotherapy induced oral mucositis. On the set-up: key to Maximum Grade of Mucositis: 0: no mucositis; 1: painful mucositis not necessitating a change in oral intake; 2A: painful mucositis restricting intake to soft foods; 2B: painful mucositis restricting oral intake to liquids; 3: mucositis preventing oral intake. The format is in vivo, human. The text has this: Patients experiencing mucositis of the oropharynx following a course of chemotherapy were offered the opportunity to enter this study if no other clinical parameters precluded receiving the same chemotherapy doses during the next course of treatment. […] Other carriers, flavor enhancers, gums, and suspending agents known in the art may be employed. The suspension was stored in a refrigerator during use for a maximum of 1 month. […] The severity of mucositis was graded as: 0, no mucositis; 1, painful mucositis not necessitating a change in oral intake; 2A, painful mucositis restricting intake to soft foods; 2B, painful mucositis restricting oral intake to liquids; and 3, mucositis preventing oral intake (CALGB criteria). Maximum grade of mucositis and total number of days of mucositis were compared by the paired t-test. All patients gave written informed consent, and the trial was approved by the Institutional Review Board of the University of Minnesota. Ten adults, 5 men and 5 women, were entered in the study. […] One patient with AIDS and Kaposi's sarcoma was treated with doxorubicin by constant iv infusion over 5 days with bolus DTIC and vincristine. One patient with breast cancer was treated with doxorubicin, cyclophosphamide, and 5-FU, iv bolus.

The subject of data set [5] is rats treated with methotrexate. Particulars: glutamine supplementation of an elemental diet; cited from earlier work.
Data set [6] has as its system rats given abdominal radiotherapy. The note with it: glutamine group vs glycine enriched group; cited from earlier work.
Data set [7] relates to animals given methotrexate. The note with it: administered after methotrexate; cited from earlier work.
Setting [8] is: parenteral glutamine supplementation vs none.

On to `NC(=O)CC[C@H](N)C(=O)O` [glutamine, L-glutamine], for which, in data set [1] (high dosage of intravenous glutamine vs no glutamine), the “severity of oral mucositis (stomatitis)” value is “no difference”. Moreover, in data set [1] (setting [8]), the “episodes of clinical infections” value is on record as “fewer episodes of clinical infections”, the median hospitalization entry was “shorter median hospitalization” and the nitrogen balance entry is “better nitrogen balance”. The tolerability result in data set [2] was “well tolerated”. In addition, the “clinical toxicity or measurable toxic metabolites (ammonia or glutamate)” value in data set [3] is “no evidence of clinical toxicity or generation of measurable toxic metabolites”. In addition, the “Subjective Improvement of Mucositis” value in data set [4] (Chemotherapy + Glutamine 2 gm/m^2 BID vs previous identical chemotherapy without glutamine, one line per patient (1-10)) is “Yes (9×) and No”. The “Maximum Grade of Mucositis” value in data set [4] (chemotherapy + glutamine, L-glutamine 2 g/m^2 swish and swallow twice daily, one line per patient (1-10), CALGB criteria) is 1 (7×) and 0 (3×). Also, in data set [4] (oral glutamine 2 g/m^2 twice daily, ambulatory patients), the “toxicity of the glutamine” value is recorded as “absence of any detectable toxicity”. In addition, in data set [4] (with glutamine supplementation), the “patients in whom the maximum grade of mucositis remained the same (grade 1)” value was 2/10 and the “patients in whom the total number of days of mucositis decreased” value is recorded as 9/10. Besides, the “median score of maximum grade of mucositis” value in data set [4] (with glutamine supplementation (2 without), p=0.001) stood at 1. In addition, the “total number of days of mucositis, mean (SEM)” value in data set [4] (with glutamine supplementation (10.1±1.2 without), p=0.001) worked out at 3.8 ± 1.0 days. In addition, the “patients in whom the maximum grade of mucositis decreased” value in data set [4] (with glutamine supplementation vs previous course, p=0.001) is given as 8/10. Besides, in data set [4] (with the addition of glutamine), the “patients in whom glutamine allowed chemotherapy doses that would otherwise have had to be reduced due to mucositis” value is 8/10 and the “patients who felt that the mucositis was less severe” value is listed as “Nine of the 10”. For the same molecule, in data set [5], the incidence of bacteremia result was “lower incidence of bacteremia”; the mortality result is reported as “less mortaility”; the “mucosal weight of the jejunum and colon” value is “increased mucosal weight of the jejunum and colon”; the survival result is given as “longer survival”. Also, the weight loss entry in data set [5] is “less weight loss”. Moreover, in data set [6], the mucosal structure result is “more normal mucosal structure” and the survival rate entry is listed as “higher survival rate”. In addition, in data set [7], the “survival rate, enteral vs parenteral supplementation” value is reported as “better survival rate”.
